Read-outs that look alike come from different tables or passages of the source.
Legend:
[1] = Rapamycin whole blood pharmacokinetics (HPLC-MS/MS, non-compartmental) in dogs with osteosarcoma; type: in vivo, dog; details: for measurable trough levels: CD8, CD9; for concentration at 15 day / concentration at 8 day / concentration at 9 day / concentration at 48 h / Tmax / half-life / Cmax / AUC(0-t): dog, whole blood; for concentration at 15 day / concentration at 8 day / concentration at 9 day / concentration at 48 h: intramuscular; for concentration at 15 day: Day 15 (seven days after cessation), read-out: CD15; for concentration at 8 day: trough Day 8, median (range), read-out: CD8; for concentration at 9 day: trough Day 9, median (range), read-out: CD9; for concentration at 48 h: 48 h after first dose, read-out: C48h; for AUC(0-t): read-out: AUC0–48
Protocol: Subsequent doses were administered on days 3–8. Additional pharmacokinetic samples were obtained on days 8 (192h, day of definitive resection) and 9 (hr 216, after last day of dosing) and 15 (360 hr). […] Whole blood was transferred to cyrovials and stored at −80°C until analysis. Whole blood, serum and plasma were collected from all patients. Serum and plasma samples were stored for post-hoc hypothesis generating assessments.
The eluate was analyzed using HPLC with MS/MS detection. […] Clinical sample results were calculated using peak area ratios and calibration curves were generated using a weighted (1/x^2) linear least-squares regression. […] All data were acquired, processed, and reported using Applied Biosystems/MDS-Sciex Analyst Version 1.4 software (www.lifetechnologies.com, Carlsbad, CA).
Area under the concentration time curve to the time point measured at 48hr after the first dose (AUC0–48h) was calculated with the linear trapezoidal method. The terminal rate constant was derived from the slope of the natural log transformed concentrations and times on the terminal elimination phase of the decay curve. Terminal elimination half-life was calculated by dividing 0.693 by the terminal rate constant. The relationship of pharmacokinetic parameters and pharmacodynamic variables were examined using scatter plots.

[2] = test system: p/t-S6RP (S240/244) in canine osteosarcoma cell lines (BW and SK); assay: ECL quantification of p/t-S6RP in canine osteosarcoma cell lines; type: cell-based
Protocol: (§1) Protein concentration of lysates was determined by BCA protein assay (Pierce, Thermo Fischer Scientific, Rockford, IL). Lysates were separated with Invitrogen NuPage gels (Invitrogen, Carlsbad, CA) and transferred to nitrocellulose membranes. The blots were probed for the proteins of interest with specific antibodies followed by a secondary antibody (Cell Signaling Technology, Inc, Danvers, MA) and then incubated with SuperSignal chemiluminescence substrate (Pierce). The blots were then exposed to Kodak Biomax Light Film (Kodak, Rochester, NY). The antibodies against AKT and p-AKT (Ser473), S6RP and p-S6RP, and actin were obtained from Cell Signaling.
The samples (cell lines, tumor, PBMC) used for ECL were prepared based on the Meso-Scale Discovery (MSD) lysate preparation protocol (Meso-Scale Discovery, Gaithersburg, MD) using complete lysis buffer with protease and phosphatase inhibitors. For quantitative analysis of phospho-proteins, duplex t/p-AKT (S473) and duplex t/p-S6RP (S240/S244) were obtained from MSD, used following manufacturer's instructions, and read with Sector Imager 2400 (MSD). A total of 25 ug of lysates were used per well for the duplex assays. Out of the 19 paired tumor biopsies analyzed, 9 were excluded due to values below the detection limit, of which 8 were from one trial site. […] PBMC from 8 patients were analyzed for p-S6RP/t-S6RP and all data was shown. […]

[3] = test system: dogs with appendicular osteosarcoma
Source text: All dogs underwent a pre-treatment tumor biopsy and collection of PBMC at study initiation. […] The defined study period was 15 days. Safety, tumoral pharmacodynamic (PD) modulation, correlation to surrogates (PBMC), and the relationship between PK and PD were study endpoints.
Escalation through 5 planned dose cohorts was based on assessment of dose limiting toxicities (DLT) using VCOG modified-CTCAE convention [32]. Age (range, 3.7–11.9 years; median 7.9 years), sex (14 spayed females, 8 castrated males) and breed (5 mixed-breed and 17 purebred) were recorded for all dogs enrolled on study ( Table 3 : Patient Characteristics).
Dogs underwent a complete physical examination, CBC, serum biochemical profile, UA and pre-treatment biopsies at Day 0. Vital signs (core temperature, pulse, respiratory rate) were recorded at baseline. […] Owners completed an Owner Assessment Form on Days 0, 8 and 15 to record impressions of their dog's clinical status throughout the study period.
Blood samples were collected to define hematologic and biochemical DLT. CBC, biochemical profile and urinalysis were evaluated at Day 0, and then weekly (pre-operatively at Day 8 and Day 15) to define safety. The Veterinary Cooperative Oncology Group Common Toxicity Criteria for Adverse Events (VCOG-CTCAE) was used to determine DLT, defined as any grade 3 or grade 4 (hematologic or non-hematologic) events [32]. […] MTD was defined as one dose level below the maximum achieved in dose-escalation. Any and all adverse events were collected within the electronic database reporting system (C3D) following strict one-week reporting timelines.

[4] = test system: p-S6RP in human breast cancer cell lines (MCF7 and MDA231); assay: Immunoblot of p-S6RP in human breast cancer cell lines; type: cell-based; details: 100 nM, MCF7 and MDA231 cells
Protocol: as §1
(§2) Controls were Jurkat cells treated with LY (−) or PMA (+). B. Quantitative determination of total and p-S6RP (S240/244) with electrochemiluminescence (ECL) assay. C. […] (1.56 MB TIF) Click here for additional data file.

[5] = test system: p-S6RP in canine osterosarcoma cell lines (BM, SK); assay: Immunoblot of p-S6RP in canine osteosarcoma cell lines; type: cell-based; details: 100 nM, BM and SK cells
Protocol: as §1, §2

[6] = Mixed Breed (2 dogs), Boxer (1 dog), 0.04 mg/kg IM daily, N=3
[7] = Mixed Breed (2 dogs), Boxer (1 dog), 0.04 mg/kg IM, after first dose, median (range), N=3
[8] = 0.01 mg/kg IM, after first dose, median (range), N=3
[9] = 0.06 mg/kg IM, after first dose, median (range), N=7
[10] = 0.08 mg/kg IM, after first dose, median (range), N=4
[11] = 0.02 mg/kg IM, after first dose, median (range), N=4
[12] = both, various breeds (5 mixed-breed and 17 purebred dogs), dog, in vivo, 15 days

Structure (SMILES): CO[C@H]1C[C@@H]2CC[C@@H](C)[C@@](O)(O2)C(=O)C(=O)N2CCCC[C@H]2C(=O)O[C@H]([C@H](C)C[C@@H]2CC[C@@H](O)[C@H](OC)C2)CC(=O)[C@H](C)/C=C(\C)[C@@H](O)[C@@H](OC)C(=O)[C@H](C)C[C@H](C)/C=C/C=C/C=C/1C [rapamycin, Rapamycin]
- median trough concentrations on day 8 and 9 (CD8, CD9) ([1]; 0.06 mg/kg (approx 2.1 mg/day) IM daily): greater than 10 ng/mL
- median trough concentrations on day 8 and 9 (CD8, CD9) ([1]; 0.08 mg/kg (approx 2.8 mg/day) IM daily): greater than 10 ng/mL
- measurable trough levels ([1]; 4th dose cohort (0.06 mg/kg, approx 2.1 mg)): ≥ 10 ng/mL
- measurable trough levels ([1]; 5th dose cohort (0.08 mg/kg, approx 2.8 mg)): ≥ 10 ng/mL
- concentration at 15 day ([1]; Mixed Breed (2 dogs), Boxer (1 dog), 0.04 mg/kg IM daily, median (range), N=3): 1.56 ng/mL
- concentration at 8 day [1, 6]: 6.62 ng/mL
- concentration at 9 day [1, 6]: 7.92 ng/mL
- concentration at 48 h ([1]; Mixed Breed (2 dogs), Boxer (1 dog), 0.04 mg/kg IM, median (range), N=3): 1.86 ng/mL
- Tmax [1, 7]: 24 h
- half-life ([1]; Mixed Breed (2 dogs), Boxer (1 dog), 0.04 mg/kg IM, terminal half-life, median (range), N=3, read-out: T1/2 (converted)): 62.7 h
- Cmax [1, 7]: 2.87 ng/mL
- AUC(0-t) [1, 7]: 105 ng·h/mL
- Steady state ([1]; after 8 days of exposure, daily IM): not achieved
- Tmax ([1]; both sexes, all dogs, 0.01–0.08 mg/kg IM, range): 2 to 48 h
- half-life ([1]; both sexes, dogs, IM, read-out: terminal half-life): > 60 h
- half-life ([1]; im, 0.01 mg/kg, read-out: T1/2 (converted)): 115 h
- concentration at 15 day ([1]; 0.01 mg/kg IM daily, median (range), N=3): 0.45 ng/mL
- concentration at 8 day ([1]; 0.01 mg/kg IM daily, N=3): 2.78 ng/mL
- concentration at 9 day ([1]; 0.01 mg/kg IM daily, N=3): 1.92 ng/mL
- concentration at 48 h ([1]; 0.01 mg/kg IM, median (range), N=3): 0.91 ng/mL
- concentration at 15 day ([1]; 0.02 mg/kg IM daily, median (range), N=4): 0.86 ng/mL
- concentration at 8 day ([1]; 0.02 mg/kg IM daily, N=4): 5.63 ng/mL
- concentration at 9 day ([1]; 0.02 mg/kg IM daily, N=4): 5.93 ng/mL
- concentration at 48 h ([1]; 0.02 mg/kg IM, median (range), N=4): 1.26 ng/mL
- concentration at 15 day ([1]; 0.06 mg/kg IM daily, median (range), N=7): 1.04 ng/mL
- concentration at 8 day ([1]; 0.06 mg/kg IM daily, N=7): 9.84 ng/mL
- concentration at 9 day ([1]; 0.06 mg/kg IM daily, N=7): 9.3 ng/mL
- concentration at 48 h ([1]; 0.06 mg/kg IM, median (range), N=7): 3.61 ng/mL
- concentration at 15 day ([1]; 0.08 mg/kg IM daily, median (range), N=4): 3.66 ng/mL
- concentration at 8 day ([1]; 0.08 mg/kg IM daily, N=4): 15.4 ng/mL
- concentration at 9 day ([1]; 0.08 mg/kg IM daily, N=4): 16.4 ng/mL
- concentration at 48 h ([1]; 0.08 mg/kg IM, median (range), N=4): 4.6 ng/mL
- Tmax [1, 8]: 24 h
- Tmax ([1]; 0.02 mg/kg IM, after first dose, median, N=4): 24 h
- half-life ([1]; 0.02 mg/kg IM, terminal half-life, median (range), N=4, read-out: T1/2 (converted)): 70.8 h
- Tmax [1, 9]: 6 h
- half-life ([1]; 0.06 mg/kg IM, terminal half-life, median (range), N=7, read-out: T1/2 (converted)): 72.7 h
- Tmax [1, 10]: 15 h
- half-life ([1]; 0.08 mg/kg IM, terminal half-life, median (range), N=4, read-out: T1/2 (converted)): 86.6 h
- Cmax [1, 8]: 1.27 ng/mL
- AUC(0-t) [1, 8]: 47.4 ng·h/mL
- Cmax [1, 11]: 1.69 ng/mL
- AUC(0-t) [1, 11]: 64.3 ng·h/mL
- Cmax [1, 9]: 7.29 ng/mL
- AUC(0-t) [1, 9]: 285 ng·h/mL
- Cmax [1, 10]: 12.1 ng/mL
- AUC(0-t) [1, 10]: 309 ng·h/mL
- systemic exposure (Cmax and AUC0–48h) versus dose ([1]; dose range 0.01–0.08 mg/kg IM): increased proportionally to rapamycin dose
- reduction of p/t-S6RP ([2]; BW and SK cells, rapamycin 100 nM for 4 hours vs untreated controls): approximately 50 ×
- inhibition of down-stream targets of mTOR ([2]; canine osteosarcoma cell lines, western blot and ECL): inhibits down-stream targets of mTOR in a dose-dependent fashion
- anorexia, self-limiting non-dose limiting toxicity (grade 1,2), number of dogs [3, 12]: 2
- diarrhea, self-limiting non-dose limiting toxicity (grade 1,2), number of dogs [3, 12]: 1
- thrombocytopenia, self-limiting non-dose limiting toxicity (grade 1,2), number of dogs [3, 12]: 1
- vomiting, self-limiting non-dose limiting toxicity (grade 1,2), number of dogs [3, 12]: 2
- febrile episodes reported ([3]; dog, in vivo): two
- immunosuppression and surgical incision healing delays ([3]; dog, in vivo): Neither immunosuppression nor surgical incision healing delays were reported
- lymphopenia, post-operative infection rate, surgical incision healing delays ([3]; dog, in vivo): no evident lymphopenia, increased post-operative infection rate, nor surgical incision healing delays
- neurological, respiratory, renal, or biochemical toxicities related to treatment ([3]; dog, in vivo): no clinically significant
- tolerability of dose escalation ([3]; dog, in vivo): well tolerated
- maximally tolerated dose (MTD) ([3]; escalation to 0.08 mg/kg IM daily, n = 19): not defined
- rapamycin-mediated inhibition of p-S6RP (immunoblot) [4]: inhibition of p-S6RP
- rapamycin-mediated inhibition of p-S6RP (immunoblot) [5]: inhibition of p-S6RP

Reference: paper PMC2882366 (PLoS ONE, 2010)
